In general, IC50 refers to the concentration that inhibits the measured activity by half. Low values mean greater potency, high ones weaker potency.

One assay deals with YES1 kinase (Homo sapiens, UniProt P07947). The assay can be described thus: YES1 protein kinase inhibitory activity assay (HTRF). Particulars: for IC50: HTRF, YES1 kinase, ATP 10 µM. Format: biochemical. The protocol:
In this experiment, the capability of the compound MRANK-106 of the present disclosure to inhibit kinase activity was assessed by an HTRF method using a drug screening system based on the YES1 kinase.
Table 3-1. Information about reagents and consumables
The enzymatic activity conditions and HTRF system formulation are shown in Table 3-3; the experimental conditions for the kinase activity assay are shown in Table 3-4. Table 3-3. HTRF system formulation
Table 3-4. The experimental conditions for the kinase activity assay
The test compound MRANK-106 was dissolved in DMSO, and the solution was vortexed and shaken for thorough mixing. The solution was serially diluted 3-fold with DMSO, with the initial concentration being 503 nM.
① A 2× ATP/substrate solution and a 2× kinase solution were formulated using a kinase reaction buffer.
② 50 nL of the compound dilution was transferred to a 384 detection plate using Echo 655. After centrifugation, 2.5 µL of a 2× kinase solution was added to the 384 detection plate. The plate was centrifuged at 1000 rpm for 1 min and incubated at 25 °C for 10 min.
② 2.5 µL of the 2× substrate and ATP solution was added to the 384 detection plate, and the plate was centrifuged at 1000 rpm for 1 min and incubated at 25 °C for 60 min.
④ A 2× XL665 and antibody detection reagent was formulated using a detection buffer.
⑤ 5 µL of a kinase detection reagent was added to the detection plate, and the plate was incubated at 25 °C. The plate was centrifuged at 1000 rpm for 1 min and incubated at 25 °C for 1 h.
⑥ The fluorescence signals at 620 nm (Cryptate) and 665 nm (XL665) were read using a BMG high-throughput drug-screening multi-mode microplate reader.
With the reading of the negative control set as an inhibition rate of 0% and the reading of the positive control set as an inhibition rate of 100%, the inhibition rate of each test solution was calculated using the following formula: [formula] • Datapositive control: the average of the positive control well values • Datanegative control : the average of the negative control well values
The IC50 (half maximal inhibitory concentration) of the compound was obtained using the following nonlinear fitting formulas: Y = Bottom + (Top−Bottom)/(1+10^(∧)((LogIC50−X)*HillSlope)) [formula] • X: the log value of the compound concentration • Y: the inhibition rate (% inh) of the compound
The Z' factor calculation equation: Z′ = 1−3(SDmin+SDmax)/(AVEmax−AVEmin) [formula] where: • Min is the positive control Data value, and Max is the negative control DMSO Data value; • SD stands for standard deviation, and AVE stands for average.
In general terms: In TR-FRET formats the signal depends on donor and acceptor labels being close together.

For the next assay, the target named is Wee1 kinase (Homo sapiens, UniProt P30291). The assay can be described thus: WEE1 protein kinase inhibitory activity assay (ADP-GLO luminescence). The format is biochemical. Particulars: for IC50: Wee1 10 ng/well, ATP 10 µM, 3 h, 37 °C. The protocol: The influence of the compound MRANK-106 of the present disclosure on the kinase activity of Weel was assessed using an in vitro kinase reaction system.
Sequence of Wee1 kinase (P30291 whole entry): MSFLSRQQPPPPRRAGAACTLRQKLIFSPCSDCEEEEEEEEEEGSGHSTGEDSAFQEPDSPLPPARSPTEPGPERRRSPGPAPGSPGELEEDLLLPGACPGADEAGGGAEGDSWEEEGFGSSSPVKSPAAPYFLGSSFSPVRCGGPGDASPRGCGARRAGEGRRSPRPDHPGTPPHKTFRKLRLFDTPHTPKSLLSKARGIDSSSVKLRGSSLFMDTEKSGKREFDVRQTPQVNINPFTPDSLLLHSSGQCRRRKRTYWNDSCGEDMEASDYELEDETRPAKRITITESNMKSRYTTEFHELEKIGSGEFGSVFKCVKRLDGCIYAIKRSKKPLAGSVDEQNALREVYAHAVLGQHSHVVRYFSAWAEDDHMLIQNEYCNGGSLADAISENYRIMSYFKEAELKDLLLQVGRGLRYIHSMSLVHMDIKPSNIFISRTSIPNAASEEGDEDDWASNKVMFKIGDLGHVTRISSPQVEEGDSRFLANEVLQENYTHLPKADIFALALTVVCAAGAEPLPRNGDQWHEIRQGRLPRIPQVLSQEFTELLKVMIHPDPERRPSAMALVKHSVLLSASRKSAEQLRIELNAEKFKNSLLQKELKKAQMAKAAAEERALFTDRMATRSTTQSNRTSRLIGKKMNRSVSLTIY
Table 2-1. Information about reagents and consumables
① 1× kinase buffer: A 5× kinase buffer was diluted with ddH2O to make a 1× kinase buffer. Table 2-3. The reagent components added to the 1× kinase buffer
③ 5× enzyme working solution: The optimization of the enzyme concentration had been completed in previous work, and the concentration of the reagent used in the screening is shown in Table 2-4. A 5× enzyme working solution of the enzyme was formulated using the 1× kinase buffer.
④ Compound formulation: A 10 mM mother liquor was formulated using DMSO, aliquoted, and then stored at -20 °C. Immediately before use, the mother liquor was thawed, diluted with DMSO to 1 mM, serially diluted 4-fold to 10 concentration points, and then 40-fold diluted with the 1× kinase buffer to give a 2.5× working solution. Table 2-4. The experimental conditions for the kinase activity assay
After the above reagents were formulated and equilibrated to room temperature, 4 µL of the diluted solution of the compound to be tested and 2 µL of the formulated enzyme solution were added to reaction wells. After shaking and centrifugation, the plate was incubated at room temperature for 15 min, and 4 µL of the ATP solution was then added to start a kinase reaction. After 3 h of reaction at 37 °C, 10 µL of an ADP-GLO reagent was added. After thorough mixing, the mixture was left to react at room temperature for 40 min, and 20 µL of a detection reagent was then added. After 30 min of reaction at room temperature, the luminescence signals were detected using a SpectraMax L instrument. Two independent duplicate assays were performed. The inhibition rate of each well was calculated based on all activity wells and background signal wells, with an average calculated for duplicate wells. Meanwhile, the inhibition rate was plotted using the professional graphing and analysis software PRISM 9.0, and the IC50 was calculated.
The inhibition rates of the compounds to be tested against the kinase activity of Wee1 were calculated using the following formula: Inhibition rate% = (Lumvehicle−Lumcompound)/(Lumvehicle−Lumblank) × 100% [formula] • Lumcompound: the luminescence of the sample treatment groups • Lumvehicle: the luminescence of the solvent control group • Lumblank: the luminescence of the blank group
On the technique in general: ADP-Glo turns the ADP formed in a reaction into a luminescent signal.

[1] abbreviates: summary statement on the assay results.

SMILES strings stand for the structures.

Sequence of YES1 kinase (P07947 whole entry): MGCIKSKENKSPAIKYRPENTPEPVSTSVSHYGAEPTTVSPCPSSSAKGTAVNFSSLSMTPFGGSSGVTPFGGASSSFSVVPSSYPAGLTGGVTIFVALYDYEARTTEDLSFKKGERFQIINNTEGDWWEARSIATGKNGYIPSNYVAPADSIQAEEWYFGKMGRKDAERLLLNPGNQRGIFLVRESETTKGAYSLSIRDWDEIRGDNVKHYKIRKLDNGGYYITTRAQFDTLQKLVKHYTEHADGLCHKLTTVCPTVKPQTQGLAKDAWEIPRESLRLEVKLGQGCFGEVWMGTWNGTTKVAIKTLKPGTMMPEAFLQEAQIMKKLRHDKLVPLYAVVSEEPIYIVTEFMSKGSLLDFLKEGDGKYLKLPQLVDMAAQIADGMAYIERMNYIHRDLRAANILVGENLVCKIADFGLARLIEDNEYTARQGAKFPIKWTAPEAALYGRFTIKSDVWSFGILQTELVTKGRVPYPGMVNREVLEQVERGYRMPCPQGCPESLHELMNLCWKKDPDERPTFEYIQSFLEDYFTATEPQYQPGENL

Take `Cc1cc(Nc2ncc3c(=O)n4n(c3n2)-c2cccc(n2)[C@](C)(O)CCC=CC4)ccc1OC1CCN(C)CC1` (stereo in doubt) [Compound IE, (R,Z)-12-hydroxy-12-methyl-2-((3-methyl-4-((1-methylpiperidin-4-yl)oxy)phenyl)amino)-7,10,11,12-tetrahydro-5H-13,17-(azeno)pyrimido[4',5':3,4]pyrazolo[1,2-a] [1,2]diazacyclotridecin-5-one]: the IC50 against YES1 kinase turned out to be 3.05 nM; against Wee1 kinase it was 7.8 nM. Also, the “inhibition of the Yes target (in words)” value at YES1 kinase (setting [1]) was “strongly inhibited”. For the same compound, on Wee1 kinase (setting [1]), the “inhibition of the Weel target (in words)” value was “strongly inhibited”.
Consider `C=CCn1c(=O)c2cnc(Nc3ccc(N4CCN(C)CC4)cc3)nc2n1-c1ccc2c(n1)C(O)(CC)CC2` (stereo not drawn) [ZN-c3, reference compound], for which the results for the 50% inhibitory concentration (IC50) against YES1 kinase and against Wee1 kinase were above 500 nM and 5.6 nM, respectively.

The values above are taken from patent publication EP4711366A1, “PYRIMIDO MACROHETEROCYCLIC COMPOUND AS WEE1-YES DUAL-TARGET INHIBITOR AND USE THEREOF” (Mindrank AI Ltd., priority 2023, dated 2024).
